One substance from US6087336A, “Peptide derivatives useful in treating autoimmune diseases” (Zeneca Limited, priority 1996, dated 2000) can be followed below.

The target of assay [1] is T1, HLA-DR4Dw4 (Homo sapiens, UniProt P01903+P01911, A100K/A169T/F76Y/I96L/K127E/L162R/M171V/N62H/P40V/Q125Y/R42H/S133A/S149N/S66Y/V115G/V209L/W38E).
T1 construct: a cDNA encoding the β chain is cloned into the transfer vector pAcUW1; made in house; host or cells: Sf21 insect cells, double-recombinant baculovirus
Put plainly: Test A: purified HLA-DR peptide in vitro binding assay. To be noted: compared with the other isolated diastereomer. Here is the method:
Test A: Purified HLA-DR peptide in vitro binding assay. […]. At the end of the incubation period 100 μl of the incubate is transferred to Enzyme Linked lmmunoSorbant Assay (ELISA) plates (Nunc) previously coated with an anti-MHC antibody (L243--American Type Culture Collection (ATCC) HB55 --as described in Lampson and Levy (1980) J. Immunol. 125, 293-299) at a concentration of 10 μg/ml for 1 hour at room temperature and blocked thereafter for 1 hour with 1% bovine serum albumin (BSA) in PBS and 0.05% Tween 20. After a further 1 hour period the unbound peptide is washed away and a 1/4,000 dilution of streptavidin peroxidase (Sigma) in PBS with 0.01% of a suitable detergent such as NP40 (Sigma) added for 2 hours at room temperature. After further washing, tetramethylbenzidene (TMB) substrate solution (1 TMB tablet (Sigma) in 10 mIs of 0.1 M citrate/acetate buffer, pH 6.0 with 36 μl urea hydrogen peroxide (UHPO) (Fluka)) is added to each of the plates. The reaction is stopped by adding 2M sulphuric acid (10 μl per well) and the absorbance read at 450 nm to quantify the amount of peptide bound. The inhibitory activity of peptides is obtained by plotting absorbance against concentration.
The purified HLA-DR4Dw4 may be obtained as follows:
(i) Expression of HLA-DR in the Baculovirus System
The expression of recombinant proteins in insect cells from baculovirus vectors is an established procedure to obtain high yields of recombinant protein [Luckow, V A & Summers, M D, 1988, Biotechnology, 6, 47-551]. To enable the expression of the heterodimeric HLA-DR, eg. HLA-DR4Dw4, from a single recombinant baculovirus vector (as opposed to having separate recombinant viruses for the α and β chains and then doing a co-infection), a double-recombinant baculovirus is constructed which carries both the α and β chains.
A cDNA encoding the sequence of the α polypeptide is cloned into the transfer vector pacYM1 [Matsuura, Y; Possee, R D; Overton, H A & Bishop, D H L, 1987, J. Gen. […] The molecular genetic techniques used to construct the recombinant vectors are likewise readily available in the literature and are most fully described by Sambrook, J; Fritsch, E F & Maniatis T, (1989) [Molecular Cloning. […]
To create the double-recombinant baculovirus, a cDNA encoding the β chain is cloned into the transfer vector pAcUW1 [Weyer, U; Knight, S & Possee, R D, 1990, J. Gen. […] Double-recombinant viruses are detected by spotting insect cells, infected with randomly picked viruses from the transfection, onto membranes and reacting them with a monoclonal antibody, e.g. L243, which specifically recognises the HLA-DR heterodimer. Binding of the antibody to Sf21 insect cells is detected using standard flow cytometry techniques, readily available in the literature. […]

For assay [2], the system named is B52.24 murine T cell hybridoma line. As to the kind of experiment: Test B: inhibition of T cell activation in vitro. In kind it is cell-based. To be noted: compared with the other isolated diastereomer. An excerpt:
Test B: Inhibition of T cell activation in vitro.
. B52.24 was produced by the fusion of lymph node T cells taken from FHA307-320 immunised HLA-DR4Dw4 transgenic mice (International Patent Application, Publication No WO95/03331) with the BW5147 murine T cell lymphoma line (White et al (1989) J. Immunol. 143, 1822) as outlined in Woods et al (1994) J. Exp. Med. 180, 173-181 and following the general methods for the generation of T cell hybridomas given in Current Protocols in Immunology, Volume 2, 7.21.
Inhibitor peptides at concentrations between 100 and 0.1 μM (or lower) were mixed with the antigenic peptide FHA307-320 in either varying concentrations between 100 and 0.1 μM or at a fixed concentration of 10 μM by dilution in RPM1-1640 culture media (Gibco) in a 96-well mictrotitre plate (Nunc) in a final volume of 100 μl. […]
The culture plates containing supernatants to be assayed were left at room temperature to thaw and […] of supernatant was transferred to fresh 96 round bottomed well plates. […] The contents of each plate were harvested onto glass fibre filter mats and the radioactivity measured using a betaplate scintillation counter.

As for “Phv-Ala-Ala-Ala-Lys-Val-III-Ala-Pip-NH2 [more polar diastereomer]”, the “relative potency of diastereomers in Test A” value in assay [1] is recorded as “more potent than the less polar diastereomer”. Also, in assay [2], the “relative potency of diastereomers in Test B” value is reported as “more potent than the less polar diastereomer”.
